According to patent US11324706B2, “Composition for inhibiting growth of breast cancer stem cells containing phenylacetaldehyde” (JEJU NATIONAL UNIVERSITY INDUSTRY-ACADEMIC COOPERATION …, priority 2016, dated 2022):

Tested on: MCF-7 cell-derived mammospheres
Experiment: Mammosphere formation, MCF-7-derived
Format: cell-based, human
Settings: volatile materials exposed to MCF-7 (FIG. 5B)
Method: FIGS. 4A, 4B and 4C show effects of PAA on formation of MCF-7 cell-derived mammospheres. Primary mammospheres were cultured together with PAA (0.2 and 0.5 mM) or DMSO;
Human breast cancer cells, i.e., MCF-7 and MDA-MB-231, were commercially obtained from American Type Culture Collection (ATCC; Manassas, Va., USA). MCF-7 and MDA-MB-231 cells were cultured in Dulbecco's modified essential medium (DMEM; Hyclone, Logan, Utah, USA) containing 10% fetal bovine serum (FBS; Hyclone), 100 U/mL of penicillin, and 100 μg/mL of streptomycin (Hyclone). The MCF-7 and MDA-MB-231 cells were maintained at 37° C. in a 5% CO2-containing humidified incubator. The cells were plated at a density of 1×10^6 on a 10 cm petri dish. In order to establish primary mammospheres, single cell-suspended MCF-7 and MDA-MB-231 cells were seeded at a density (cells/well) of 3.5×10^4 to 4×10^4 and 0.5×10^4 to 1×10^4, respectively, on ultra-low attachment 6-well plates containing 2 ml complete MammoCult™ medium (StemCell Technologies, Vancouver, BC, Canada). The complete MammoCult™ medium was supplemented with 4 μg/mL of heparin, 0.48 μg/mL of hydrocortisone, 100 U/mL of penicillin and 100 μg/mL of streptomycin. The cells were cultured for 7 days in a 37° C. 5% CO2 incubator.
At 7 days of culture, the cell culture plate was disposed on a scanner (Epson Perfection V700 PHOTO, Epson Korea, Co, Seoul, Korea) to obtain an 8 bit gray scale image of mammospheres. The image was obtained at a low resolution (300 dpi) using an NICE software program and downloaded from ftp://ftp.nist.gov/pub/physics/mLclarke/NICE. For counting, preferred numbers of rows and columns (for example, 2×3 of 6-well plate) were selected to form regions of interest (ROIs), and an oval setting of the NICE program was selected and then respective ROIs were defined by moving the shapes of provided ROIs and controlling the sizes thereof. The background signal of the image was negated using a critical algorithm and the selected image was automatically counted. Regarding the mammosphere formation analysis, formation efficiency of mammospheres (MFE, %) was determined in accordance with the number of mammospheres per well/the total number of cells plated per well×100.

Structure (SMILES)	formation of primary mammospheres derived from MCF-7 cells
CC(C=O)c1ccccc1 (centres unmarked) [2-phenylpropionaldehyde]	potently inhibited
O=CCCc1ccccc1 [3-phenylpropionaldehyde]	inhibited
